In patent publication US7776922B2, “Substituted [(phenylethanoyl)amino]benzamides” (Bayer Schering Pharma Aktiengesellschaft, priority 2004, dated 2010):

Target: T1, human IL8B receptor (Homo sapiens, UniProt P25025)
T1 construct: expressed in transfected cells; host or cells: CHO cells with mitochondrially localized aequorin, co-transfected with G-alpha-16
T1 sequence (P25025 1-360): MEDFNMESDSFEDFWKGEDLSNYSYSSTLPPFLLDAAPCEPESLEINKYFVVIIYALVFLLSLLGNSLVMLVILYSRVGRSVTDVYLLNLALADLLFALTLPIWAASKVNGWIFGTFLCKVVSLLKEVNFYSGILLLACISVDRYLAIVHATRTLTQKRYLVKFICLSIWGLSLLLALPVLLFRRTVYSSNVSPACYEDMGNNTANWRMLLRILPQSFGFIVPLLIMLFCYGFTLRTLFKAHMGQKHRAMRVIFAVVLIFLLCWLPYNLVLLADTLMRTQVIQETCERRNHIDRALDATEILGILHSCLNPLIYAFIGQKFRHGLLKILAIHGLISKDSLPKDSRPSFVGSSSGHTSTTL
Experiment: Functional reporter assay for IL8B receptor antagonists (aequorin Ca2+ bioluminescence in transfected CHO cells)
Assay type: cell-based
Settings: CHO cells with mitochondrially localized aequorin, human IL8B receptor and G-alpha-16; inhibition of IL8-induced Ca2+ transient
Text: Functional Reporter Assay for High Throughput Screening of IL8B Receptor Antagonists
CHO cells with mitochondrially localized aequorin are stably transfected with the human IL8B receptor and the G-alpha-16 protein. Activation of the IL8B receptor with IL8 or an endogenous P2Y receptor with ATP leads to Ca^2+ release. This intracellular Ca^2+ transient can be detected by bioluminescence with mitochondrially localized aequorin. IL8-induced Ca^2+ transients are inhibited by IL8B receptor antagonists.
2000 cells in 25 μl of complete medium with 10% FCS per well of a 384-well multititer plate are incubated at 37° C. and 5% CO2 for 24 h. After removal of the medium, 30 μl of an 11.8 μM coelenterazine solution in 2 mM Ca-Tyrode are added, and the cells are incubated at 37° C. in 5% CO2 for a further 4 hours. 10 μl of test substance in 2 mM Ca-Tyrode/0.1% BSA are added, and the cells are incubated at room temperature for 5 minutes. The IL8B receptor is activated by adding 25 μl of a 0.78-2.6 nM IL8 solution in 2 mM Ca-Tyrode/0.1% BSA, or the endogenous P2Y receptor is activated by adding 25 μl of a 7.8-26 μM ATP solution in 2 mM Ca-Tyrode. The bioluminescence is recorded at the same time. IC50 values are calculated from dose-response plots using the Marquardt-Levenberg fit (Table A).

IC50 [nM] | Compound
64 | CCC(C(=O)Nc1ccc(-c2ccc3sccc3c2)c(C(N)=O)c1)c1ccccc1 (single isomer, unassigned) [Example 39-2, 2-(1-Benzothien-5-yl)-5-[(2-phenylbutanoyl)amino]benzamide]
100 | CCC(C(=O)Nc1ccc(-c2cc3ccccc3s2)c(C(N)=O)c1)c1ccccc1 (single isomer, unassigned) [Example 1-2, 2-(1-Benzothien-2-yl)-5-[(2-phenylbutanoyl)amino]benzamide]
82 | CCC(C(=O)Nc1ccc(-c2cc3ccccc3s2)c(C(N)=O)c1)c1nccs1 (stereo not shown) [Example 26, 2-(1-Benzothien-2-yl)-5-{[2-(1,3-thiazol-2-yl)butanoyl]amino}benzamide]
74 | CCC(C(=O)Nc1ccc(-c2cc3ccccc3s2)c(C(N)=O)c1)c1ccc2c(c1)OCCO2 (stereo not shown) [Example 35, 2-(1-Benzothien-2-yl)-5-{[2-(2,3-dihydro-1,4-benzodioxin-6-yl)butanoyl]amino}benzamide]
77 | CCC(C(=O)Nc1ccc(-c2cc3ccccc3s2)c(C(N)=O)c1)c1cccc(F)c1 (stereo not shown) [Example 30, 2-(1-Benzothien-2-yl)-5-{[2-(3-fluorophenyl)butanoyl]amino}benzamide]
200 | CCOc1ccc2cc(-c3ccc(NC(=O)C(CC)c4ccccc4)cc3C(N)=O)ccc2c1 (stereo not shown) [Example 2, 2-(6-Ethoxy-2-naphthyl)-5-[(2-phenylbutanoyl)amino]benzamide]
92 | CCC(C(=O)Nc1ccc(-c2ccc(-c3ccccc3)cc2)c(C(N)=O)c1)c1cccs1 (stereo not shown) [Example 29, 4-{[2-(2-Thienyl)butanoyl]amino}-1,1′:4′,1″-terphenyl-2-carboxamide]
